Experimental data reported in patent publication US4281121A, “1,3,4-Thiadiazole-2-carboxylic acid derivatives, process for making the same and fungicidal and nematocidal compositions containing same” (Schering Aktiengesellschaft, priority 1978, dated 1981).
Read-outs that look alike come from different tables or passages of the source.

Key:
[1] = test system: Pythium ultimum; assay: Threshold concentration test for use of the compounds against Pythium ultimum (infested soil, garden peas); format: in vivo; design: key to root evaluation (1-4): 4: white roots without fungous necrosis; 3: white roots, minor fungous necrosis; 2: brown roots, already more pronounced fungous necrosis; 1: heavy fungous necrosis, roots rotted; settings: for root evaluation (1-4): 3 weeks; for number of sound peas: 20 grains per dish, 3 weeks at 20-24° C.
Method in brief: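 Garden pea seeds, 20 per dish, went straight into Pythium ultimum-infested soil into which 20% pulverulent formulations had been uniformly blended. Sound plants counted and roots rated 1–4 after three weeks of hothouse growth at 20–24 °C.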

[2] = test system: Piricularia oryzae; format: in vivo; settings: 5 days
[3] = test system: Tilletia caries; assay: Seed treatment in open field tests regarding infestation by Tilletia caries (oats); format: in vivo
[4] = test system: Helminthosporium gramineum; assay: Seed treatment in open field tests for infestation by Helminthosporium gramineum (barley); format: in vivo
Description: Seed treatment in open field tests for infestation by Helminthosporium gramineum
The active agents were used in the form of pulverulent compositions. After about 8 months in case of winter barley and after about 3 months in case of summer barley the infested plants were counted and the activity was calculated by the formula [formula]

[5] = test system: Ustilago avenae; assay: Oat seed treatment for Ustilago avenae; format: in vivo; settings: 10 weeks
[6] = test system: Fusarium nivale; assay: Treatment of rye seeds against Fusarium nivale; format: in vivo; settings: 100 g/100 kg; about 4 weeks
Description: Treatment of rye seeds against Fusarium nivale
Rye seeds with a natural infestation by Fusarium nivale were seeded in earth filled pots and left for germination at about 6° C. Part of the seeds was treated before seeding with the active agents as appears from the subsequent table and part was untreated. After emergence of the seedlings the plants were illuminated with artificial light for 12 hours each day. After about 4 weeks the degree of infestation was determined in percentages. The fungicidal activity was calculated on the basis of the following formula: [formula]
The active agents were used in the form of 20% concentration compositions.

[7] = test system: Septoria nodorum; assay: Treatment of oat seeds against Septoria nodorum; format: in vivo; settings: 4 weeks
Description: Effects of the treatment of oat seeds against Septoria nodorum
They were then seeded on a moist substrate for germination. As a control untreated seeds were likewise seeded. At about 6° C. the seed was incubated in an air-conditioned chamber until after 4 weeks the proportion of diseased seeds could be determined and the activity of the fungicidal compounds was calculated on the basis of the following formula: [formula]
The active agents were applied in the form of 20% concentration pulverulent compositions.

[8] = test system: Helminthosporium gram
Description: Treatment of barley seeds infested with Helminthosporium gram
After emergence, the plants were subjected to illumination for 12 hours per day. After about 5 weeks the infested plants were counted and the total number of plants for each test were also counted. The active agents tested were used as pulverulent compositions.

[9] = test system: Botrytis cinerea; assay: Prophylactic leaf treatment of tomato plants against Botrytis cinerea; format: in vivo; settings: concentration of 0.025 of the active agent (unit not given)
[10] = test system: Venturia inaequalis; assay: Prophylactic leaf treatment of apples in open field test against Venturia inaequalis; format: in vivo; settings: 3 weeks
[11] = test system: Tilletia caries; assay: Treatment of oat seeds infested with Tilletia caries (spore germination); format: in vivo
[12] = concentration of active agent 0.1 (percentages)
[13] = summer barley, 25 g active agent/100 kg barley, about 3 months
[14] = summer barley, 50 g active agent/100 kg barley, about 3 months
[15] = summer barley, 100 g active agent/100 kg barley, about 3 months
[16] = winter barley, 25 g active agent/100 kg barley, about 8 months
[17] = winter barley, 50 g active agent/100 kg barley, about 8 months
[18] = winter barley, 75 g active agent/100 kg barley, about 8 months
[19] = 20 g active agent per 100 kg, about 5 weeks
[20] = 50 g active agent per 100 kg, about 5 weeks

Molecule	root evaluation (1-4) ([1]; 20 mg/l soil)	number of sound peas ([1]; 20 mg/l soil)	root evaluation (1-4) ([1]; 40 mg/l soil)	number of sound peas ([1]; 40 mg/l soil)	root evaluation (1-4) ([1]; 80 mg/l soil)	number of sound peas ([1]; 80 mg/l soil)	% activity [2, 12]	% activity [4, 13]	% activity [4, 14]	% activity [4, 15]	% activity [4, 16]	% activity [4, 17]	% activity [4, 18]	% activity ([5]; 100 g active agent/100 kg)	% activity [6]	% activity ([7]; 50 g active agent/100 kg seeds)	% activity [8, 19]	% activity [8, 20]	also measured
CS(=O)(=O)c1nnc(C(N)=O)s1 [5-methylsulfonyl-1,3,4-thiadiazole-2-carboxamide]	4	16	4	18	4	20	96%	95%	100%	100%	90%	96%	100%	84%	99%	91%	100%	100%	% activity ([3]; winter oats, 25 g active agent/100 kg, about 9 months): 100%; % activity ([3]; winter oats, 50 g active agent/100 kg, about 9 months): 100%; % activity ([3]; winter oats, 100 g active agent/100 kg, about 9 months): 100%; % activity ([4]; winter barley, 100 g active agent/100 kg barley, about 8 months): 100%; % activity ([5]; 150 g active agent/100 kg): 90%; % activity ([8]; 10 g active agent per 100 kg, about 5 weeks): 95%
CNC(=O)c1nnc(S(C)(=O)=O)s1 [5-methylsulfonyl-1,3,4-thiadiazole-2-carboxylic acid methylamide]	4	20	4	18	4	18	91%	93%	100%	100%	99.5%	99.5%	100%	90%	100%	93%	99%	100%	% activity ([2]; concentration of active agent 0.02 (percentages)): 65%; % activity ([3]; summer oats, 50 g active agent/100 kg, about 4 months): 100%; % activity [9]: 78%; % activity ([10]; concentration of active agent 0.005 (in gram)): 90%; % activity ([10]; concentration of active agent 0.025 (in gram)): 92%
Methoxyethyl-Hg--silicate [reference compound]																			% activity ([11]; 1.3 g active agent per 100 kg): 90%; % activity ([11]; 2.6 g active agent per 100 kg): 100%; % activity ([3]; summer oats, 2.6 g active agent/100 kg, about 4 months): 99%; % activity ([3]; winter oats, 5.3 g active agent/100 kg, about 9 months): 99%; % activity ([4]; summer barley, 5.2 g active agent/100 kg barley): 99.8%; % activity ([4]; summer barley, 10.4 g active agent/100 kg barley): 100%; % activity ([4]; winter barley, 2.6 g active agent/100 kg barley): 99.4%; % activity ([4]; winter barley, 5.2 g active agent/100 kg barley): 100%; % activity ([5]; 16 g active agent/100 kg): 66%; % activity ([7]; 1.3 g active agent/100 kg seeds): 86%; % activity ([8]; 0.2 g active agent per 100 kg): 63%; % activity ([8]; 0.5 g active agent per 100 kg): 91%; % activity ([8]; 1.0 g active agent per 100 kg): 98%
